Reference: PubChem BioAssay AID1259407 (Chemical Carcinogenesis Research Information System (CCRIS), 2018)
Active and inactive are the calls of the source. How the calls were made is not given here.

System: CCRIS mutagenicity, Ames/micronucleus/aberration tests
Assay: CCRIS mutagenicity studies
[1] = Test System: AMES SALMONELLA TYPHIMURIUM, Strain/Indicator: TA98, Metabolic Activation: NONE, Method: PREINCUBATION
[2] = Test System: AMES SALMONELLA TYPHIMURIUM, Strain/Indicator: TA100, Metabolic Activation: NONE, Method: PREINCUBATION

With `COc1ccc2c(c1)c(CC(=O)O)c(C)n2C(=O)c1ccc(Cl)cc1` the mutagenic call (Test System: AMES SALMONELLA TYPHIMURIUM, Strain/Indicator: TA98, Metabolic Activation: GUINEA PIG, LIVER, S-9, PCB, Method: PREINCUBATION) was “inactive; negative”, the mutagenic call (Test System: AMES SALMONELLA TYPHIMURIUM, Strain/Indicator: TA98, Metabolic Activation: HAMSTER, LIVER, S-9, PCB, Method: PREINCUBATION) was “inactive; negative” and the mutagenic call (Test System: AMES SALMONELLA TYPHIMURIUM, Strain/Indicator: TA98, Metabolic Activation: MOUSE, LIVER, S-9, PCB, Method: PREINCUBATION) was “inactive; negative”. The mutagenic call [1] was “inactive; negative”, the mutagenic call (Test System: AMES SALMONELLA TYPHIMURIUM, Strain/Indicator: TA98, Metabolic Activation: RAT, LIVER, S-9, PCB, Method: PREINCUBATION) was “inactive; negative” and the mutagenic call (Test System: AMES SALMONELLA TYPHIMURIUM, Strain/Indicator: TA98, Metabolic Activation: RAT, LIVER, S-9, PCB, Method: STANDARD PLATE) was “inactive; negative”. The mutagenic call (Test System: AMES SALMONELLA TYPHIMURIUM, Strain/Indicator: TA100, Metabolic Activation: GUINEA PIG, LIVER, S-9, PCB, Method: PREINCUBATION) was “inactive; negative”, the mutagenic call (Test System: AMES SALMONELLA TYPHIMURIUM, Strain/Indicator: TA100, Metabolic Activation: HAMSTER, LIVER, S-9, PCB, Method: PREINCUBATION) was “inactive; negative” and the mutagenic call (Test System: AMES SALMONELLA TYPHIMURIUM, Strain/Indicator: TA100, Metabolic Activation: MOUSE, LIVER, S-9, PCB, Method: PREINCUBATION) was “inactive; negative”. For the same compound, the mutagenic call [2] was “inactive; negative”, the mutagenic call (Test System: AMES SALMONELLA TYPHIMURIUM, Strain/Indicator: TA100, Metabolic Activation: RAT, LIVER, S-9, PCB, Method: PREINCUBATION) was “active; positive” and the mutagenic call (Test System: AMES SALMONELLA TYPHIMURIUM, Strain/Indicator: TA100, Metabolic Activation: RAT, LIVER, S-9, PCB, Method: STANDARD PLATE) was “inactive; negative”. For the same compound, the mutagenic call (Test System: AMES SALMONELLA TYPHIMURIUM, Strain/Indicator: TA1537, Metabolic Activation: RAT, LIVER, S-9, PCB, Method: STANDARD PLATE) was “inactive; negative”, the mutagenic call (Test System: AMES SALMONELLA TYPHIMURIUM, Strain/Indicator: TA1538, Metabolic Activation: RAT, LIVER, S-9, PCB, Method: STANDARD PLATE) was “inactive; negative” and the mutagenic call (Test System: E. COLI, Strain/Indicator: WP2 UVRA, Metabolic Activation: RAT, LIVER, S-9, PCB, Method: STANDARD PLATE) was “inactive; negative”.

`O=C(O)c1ccccc1C1=c2cc3c4c(c2Oc2c1cc1c5c2CCCN5CCC1)CCC[N+]=4CCC3` was tested, and the mutagenic call (Test System: AMES SALMONELLA TYPHIMURIUM, Strain/Indicator: TA1538, Metabolic Activation: NONE, Method: STANDARD PLATE) was “inactive; negative” and the mutagenic call (Test System: AMES SALMONELLA TYPHIMURIUM, Strain/Indicator: TA1538, Metabolic Activation: RAT, LIVER, S-9, AROCLOR 1254, Method: STANDARD PLATE) was “inactive; negative”.

For `Nc1cc(S(=O)(=O)O)cc2cc(S(=O)(=O)O)cc(O)c12`, the mutagenic call [1] was “inactive; negative”, the mutagenic call (Test System: AMES SALMONELLA TYPHIMURIUM, Strain/Indicator: TA98, Metabolic Activation: RAT LIVER S-9, PHENOBARBITAL AND BETA-NAPHTHOFLAVONE, Method: PREINCUBATION) was “inactive; negative” and the mutagenic call [2] was “inactive; negative”. For the same compound, the mutagenic call (Test System: AMES SALMONELLA TYPHIMURIUM, Strain/Indicator: TA100, Metabolic Activation: RAT LIVER S-9, PHENOBARBITAL AND BETA-NAPHTHOFLAVONE, Method: PREINCUBATION) was “inactive; negative”, the mutagenic call (Test System: AMES SALMONELLA TYPHIMURIUM, Strain/Indicator: TA1535, Metabolic Activation: NONE, Method: PREINCUBATION) was “inactive; negative” and the mutagenic call (Test System: AMES SALMONELLA TYPHIMURIUM, Strain/Indicator: TA1535, Metabolic Activation: RAT LIVER S-9, PHENOBARBITAL AND BETA-NAPHTHOFLAVONE, Method: PREINCUBATION) was “inactive; negative”. For the same compound, the mutagenic call (Test System: AMES SALMONELLA TYPHIMURIUM, Strain/Indicator: TA1537, Metabolic Activation: NONE, Method: PREINCUBATION) was “inactive; negative”, the mutagenic call (Test System: AMES SALMONELLA TYPHIMURIUM, Strain/Indicator: TA1537, Metabolic Activation: RAT LIVER S-9, PHENOBARBITAL AND BETA-NAPHTHOFLAVONE, Method: PREINCUBATION) was “inactive; negative” and the mutagenic call (Test System: AMES SALMONELLA TYPHIMURIUM, Strain/Indicator: TA1538, Metabolic Activation: NONE, Method: PREINCUBATION) was “inactive; negative”. For the same compound, the mutagenic call (Test System: AMES SALMONELLA TYPHIMURIUM, Strain/Indicator: TA1538, Metabolic Activation: RAT LIVER S-9, PHENOBARBITAL AND BETA-NAPHTHOFLAVONE, Method: PREINCUBATION) was “inactive; negative”, the mutagenic call (Test System: E.COLI, Strain/Indicator: WP2UVRA, Metabolic Activation: NONE, Method: PREINCUBATION) was “inactive; negative” and the mutagenic call (Test System: E.COLI, Strain/Indicator: WP2UVRA, Metabolic Activation: RAT LIVER S-9, PHENOBARBITAL AND BETA-NAPHTHOFLAVONE, Method: PREINCUBATION) was “inactive; negative”.

With `Cc1ccc2c(c1)c(=NC(=O)c1ccccc1[N+](=O)[O-])sn2C(=O)c1ccccc1[N+](=O)[O-]` the mutagenic call (Test System: AMES SALMONELLA TYPHIMURIUM, Strain/Indicator: TA100, Metabolic Activation: S-9, Method: STANDARD PLATE) was “inactive; negative”.

In the case of `ClCc1cccc2c1-c1cccc3cccc-2c13`, the mutagenic call (Test System: AMES SALMONELLA TYPHIMURIUM, Strain/Indicator: TA98, Metabolic Activation: NONE, Method: STANDARD PLATE) is reported as “active; positive” and the mutagenic call (Test System: AMES SALMONELLA TYPHIMURIUM, Strain/Indicator: TA100, Metabolic Activation: NONE, Method: STANDARD PLATE) is reported as “active; positive”.
